Measurements taken from patent publication EP0089939A1, “Compositions for therapeutic or diagnostic use containing oligosaccharides” (BioCarp AB, priority 1982, dated 1983).

Key:
N.gonorrhoeae [1] = assay: Inhibition of adherence of N. gonorrhoeae to vaginal cells; format: cell-based; settings: human vaginal cells, 50 cells counted; for reduction of the number of adhering bacteria: 5 mg/ml oligosaccharide
Method: Cells: Vaginal cells from healthy women in fertile age not having used hormonal preparations and werein proliferation phase were tested. Cells were collected from rear vaginal fornix with a wooden spatula and suspended in RPMI 1640 in a concentration of 10^5 cells/ml.
Gonococci: International reference strain 3 from Neisseriaavd. Statens Seruminstitut, Copenhagen, Denmark, suspended in cell cultivation medaium RPMI 1640 (Flow Ltd.) in a concentration of 10^9 bacteria/ml.
Oligosaccharides: β-D-Galp-(1-3)- -D-GalNAc-(1-0)-Me (1) β-D-Galp-(1-3)- -D-GalNAc-(1-0)-Me (2)
(§1) Procedure: 1 ml of […] containing 0 of (1), 5 mg/ml of (1) and 0.5 mg/ml of (1) and 5 mg/ml of (2), respectively, were incubated with 0.5 ml bacterial suspension at 37°C for 30 minutes. Vaginal cells (1 ml) were incubated with the above preincubated bacterial suspensions at 37°C for 45 minutes. The incubated suspensions were filtered through a filter (pore size 12 µ) and washed 3 times with PBS. The filter was pressed against microscope slides for a few seconds, the microscope slides being then fixed in methanol for 10 minutes. The microscope slides were dried in air and coloured with acridine orange for 2 minutes. After washing and drying in air the slides were studied by means of fluorescence microscopy. The number of bacteria adhering per cell was counted. In each test 50 vaginal cells were counted.

N. gonorrhoeae = assay: Inhibition of haemagglutination of sheep erythrocytes by N. gonorrhoeae; format: cell-based; settings: Neisseria gonorrhoeae, Erythrocyte, fimbriated N. gonorrhoeae, read after 2-4 hours at room temperature, read-out: Minimum concentration of inhibitor resulting in complete inhibition of haemagglutination
Method: (§2) In the test there is used a strain of N. gonorrhoeae (international reference strain 3 from Neisseriaavd. Statens seruminstitutt, Copenhagen, Denmark. and a fresh strain of the same species isolated at the Bacteriological Central Laboratory, Lunds Hospital, Lund, Sweden). The bacteria were cultivated on a special gonococc medium, see Mardh, P.A., Martensson, D, Soltesz, L.V. "An effective, simplified medium for the culture of N. gonorrhoeae". Sex.Trans.Dis. Vol. 5, pp. 10-13, 1978, at + 37°C for 18 hours. The bacterial culture was slurried in PBS, pH 7.2 to a density of 109 bacteria/ml.
(§3) Haemagglutination was performed using erythrocytes from sheep or man (O1Rh+) which were washed with PBS and suspended to a concentration of 1 % v/w in PBS, pH 7.2. The agglutination tests were-performed so that 25 µl of the bacterial suspension was titrated in PBS by using two-fold […] steps. Then 25 µl of the erythrocyte suspension which had been made 1 % were added. The haemagglutination titre (Hu) was determined after incubating the plates (microtitre plates, Limbo Sc. Comp. Inc.) for 2-4 hours in room temperature.
(§4) In the haemagglutination-inhibition tests there were used serial dilutions having the relevant inhibitor (50 µl/well) and […] bacterial suspension diluted to contain twice the lowest haemagglutination titre. The plates were incubated for 30 minutes at +37°C, 25 µl of erythrocyte suspension being then added to each well. The result was read after 2-4 hours incubation at room temperature.

N.gonorrhoeae [2] = assay: Inhibition of haemagglutination of human erythrocytes by N. gonorrhoeae; format: cell-based; settings: Neisseria gonorrhoeae, Erythrocyte; human erythrocytes (O1Rh+); fimbriated N.gonorrhoeae; read after 2-4 hours at room temperature; read-out: Minimum concentration of inhibitor resulting in complete inhibition
Method: as §2, §3, §4

N.meningitidis = assay: Inhibition of adherence of N. meningitidis to buccal mucosa cells; format: cell-based; settings: human buccal mucosa cells, N.meningitidis strain 3K, 45 min
Method: as §1
The procedure of EXAMPLE 2 was repeated but in this case cells were collected from young healthy women by scraping the Buccal Mucosae with a wooden spatula. The bacterium used was N.meningitidis, international test strain 3K, Statens Seruminstitut, Copenhagen, Denmark.

N.gonorrhoeae [3] = assay: Disinfection: removal of bacteria from an infected surface; settings: 0.1 percent by weight aqueous solution applied with a cotton pad
Method: By disinfection is here primarily intended removal of bacteria from a surface, for example a wound.
A 0.1 percent by weight aqueous solution of the compound β-D-Galp-(1-4)-D-GNAc is prepared and applied by means of a cotton pad onto a surface infected by N.gonorrhoeae.

**Q.** How did the “reduction of the number of adhering bacteria” value (from here on “reduction”) (N.gonorrhoeae [1]) turn out when `COC1O[C@H](CO)[C@H](O)[C@H](O[C@@H]2O[C@H](CO)[C@H](O)[C@H](O)[C@H]2O)[C@H]1NC(C)=O` (stereo partly drawn) [(2), β-D-Galp-(1-3)- -D-GalNAc-(1-0)-Me] was run?
**A.** did not significantly effect adherence

**Q.** How did the minimal effective concentration (N. gonorrhoeae) turn out when `CO[C@H]1O[C@H](CO)[C@H](O)[C@H](O[C@@H]2O[C@H](CO)[C@H](O)[C@H](O)[C@H]2O)[C@H]1NC(C)=O` [β-D-Galp-(1-3)-α-D-GalNAc-(1-O)Me] was run?
**A.** 150 µg/mL

**Q.** With `CO[C@@H]1O[C@H](CO)[C@H](O)[C@H](O[C@@H]2O[C@H](CO)[C@H](O)[C@H](O)[C@H]2O)[C@H]1NC(C)=O` [β-D-Galp-(1-3)-β-D-GalNAcp-(1-O)Me, Methyl 2-acetamido-2-deoxy-3-0-(B-D-galaetopyranosyl)--β-D-galactopyranoside] as the compound, how does the minimal effective concentration (N.gonorrhoeae [2]) read?
**A.** > 2000 µg/mL

**Q.** For `OC[C@H]1O[C@@H](O[C@H]2[C@H](O)[C@@H](O)C(O)O[C@@H]2CO)[C@H](O)[C@@H](O)[C@H]1O` (stereo partly drawn) [β-D-Galp-(1-4)-D-Glc], which minimal effective concentration (N.gonorrhoeae [2]) is on record?
**A.** > 5000 µg/mL

**Q.** How did the minimal effective concentration (N.gonorrhoeae [2]) turn out when `OC[C@H]1O[C@@H](OC[C@H]2OC(O)[C@H](O)[C@@H](O)[C@@H]2O)[C@H](O)[C@@H](O)[C@H]1O` (stereo partly drawn) [β-D-Galp-(1-6)-D-Glc] was run?
**A.** > 5000 µg/mL

**Q.** How did the minimal effective concentration (N.gonorrhoeae [2]) turn out when `CO[C@H]1O[C@H](CO)[C@H](O)[C@H](O[C@@H]2O[C@H](CO)[C@H](O)[C@H](O)[C@H]2O)[C@H]1NC(C)=O` [β-D-Galp-(1-3)-α-D-GalNAcp-(1-O)Me, Methyl 2-acetamido-2-deoxy-3-0-(β-D-galactopyranosyl)-a--D-galactopyranoside] was run?
**A.** 200 µg/mL

**Q.** For `CC(=O)N[C@H]1[C@H](O[C@H]2[C@@H](O)[C@@H](CO)O[C@H](O[C@@H]3[C@H](O)[C@@H](O)[C@H](O[C@H]4[C@H](O)[C@@H](O)C(O)O[C@@H]4CO)O[C@@H]3CO)[C@@H]2O)O[C@H](CO)[C@H](O)[C@@H]1O` (stereo partly drawn) [β-D-GalNAc-(1-3)-α-D-Galp-(1-4) -β-D-Galp-(1-4)-D-Glc], which minimal effective concentration (N.gonorrhoeae [2]) is on record?
**A.** > 5000 µg/mL

**Q.** How did the minimal effective concentration (N. gonorrhoeae) turn out when `CO[C@@H]1O[C@H](CO)[C@H](O)[C@H](O[C@@H]2O[C@H](CO)[C@H](O)[C@H](O)[C@H]2O)[C@H]1NC(C)=O` [β-D-Galp-(1-3)-β-D-GalNAc-(1-O)Me] was run?
**A.** > 2000 µg/mL

**Q.** With `CC(=O)N[C@H]1C(O)O[C@H](CO)[C@H](O)[C@@H]1O[C@@H]1O[C@H](CO)[C@H](O)[C@H](O)[C@H]1O` (stereo partly drawn) [β-D-Galp-(1-3)-D-GalNAc] as the compound, how does the minimal effective concentration (N. gonorrhoeae) read?
**A.** 900 µg/mL

**Q.** What about the minimal effective concentration (N.gonorrhoeae [2]) of the same compound?
**A.** 800 µg/mL

**Q.** For `COC1O[C@H](CO)[C@H](O)[C@H](O[C@@H]2O[C@H](CO)[C@H](O)[C@H](O)[C@H]2O)[C@H]1NC(C)=O` (stereo partly drawn) [(1), β-D-Galp-(1-3)- -D-GalNAc-(1-0)-Me], which effect on adherence (N.gonorrhoeae [1]; 0.5 mg/ml oligosaccharide) is on record?
**A.** did not significantly effect adherence

**Q.** What about the “reduction” value (N.gonorrhoeae [1]; 45 min) of the same compound?
**A.** 87

**Q.** What about the “reduction” value (N.meningitidis; 0.5 mg/ml oligosaccharide) of the same compound?
**A.** about 15%

**Q.** What about the “reduction” value (N.meningitidis; 5 mg/ml oligosaccharide) of the same compound?
**A.** 90%

**Q.** For `OC[C@H]1O[C@@H](O[C@H]2[C@@H](O)[C@@H](CO)OC(O)[C@@H]2O)[C@H](O)[C@@H](O)[C@H]1O` (stereo partly drawn) [β-D-Galp-(1-3)-D-Gal], which minimal effective concentration (N.gonorrhoeae [2]) is on record?
**A.** > 5000 µg/mL

**Q.** For `CC(=O)N[C@H]1C(O)O[C@H](CO)[C@@H](O[C@@H]2O[C@H](CO)[C@H](O)[C@H](O)[C@H]2O)[C@@H]1O` (stereo partly drawn) [β-D-Galp-(1-4)-D-GNAc], which “removal of the bacterium from the surface” value (N.gonorrhoeae [3]) is on record?
**A.** effective removal of the bacterium from the surface
